Measured values reported in ChEMBL document CHEMBL1697731, “Cheminformatics analysis of assertions mined from literature that describe drug-induced liver injury in different species” (Chem Res Toxicol, 2010).

Tests used:
[1] = system: Hepatotoxicity; test: Literature-mined compound from Fourches et al multi-species drug-induced liver injury (DILI) dataset, effect in humans; conditions: human
[2] = system: Hepatotoxicity; test: Literature-mined compound from Fourches et al multi-species drug-induced liver injury (DILI) dataset, effect in rodents; conditions: rodentia
[3] = system: Hepatotoxicity; test: Literature-mined compound from Fourches et al multi-species drug-induced liver injury (DILI) dataset, effect in non-rodents

| SMILES | Hepatotoxicity [1] | Hepatotoxicity [2] | Hepatotoxicity [3] | Hepatotoxicity ([1]; Liver) | Hepatotoxicity ([2]; Liver) | Hepatotoxicity ([3]; Liver) |
| --- | --- | --- | --- | --- | --- | --- |
| COc1ccc(C(=O)c2ccccc2)c(O)c1 [OXYBENZONE] | no drug-induced liver injury reported | drug-induced liver injury reported | no drug-induced liver injury reported | – | – | – |
| COc1ccc2c3c1O[C@H]1C(=O)CC[C@@]4(O)[C@@H](C2)N(C)CC[C@]314.Cl [OXYCODONE HYDROCHLORIDE] | – | – | – | no drug-induced liver injury reported | drug-induced liver injury reported | no drug-induced liver injury reported |
| C[C@]12C/C(=C/O)C(=O)C[C@@H]1CC[C@@H]1[C@@H]2CC[C@@]2(C)[C@H]1CC[C@]2(C)O [OXYMETHOLONE] | drug-induced liver injury reported | no drug-induced liver injury reported | no drug-induced liver injury reported | – | – | – |
| CN1CC[C@]23c4c5ccc(O)c4O[C@H]2C(=O)CC[C@@]3(O)[C@H]1C5 [OXYMORPHONE] | drug-induced liver injury reported | no drug-induced liver injury reported | no drug-induced liver injury reported | – | – | – |
| CCCCC1C(=O)N(c2ccccc2)N(c2ccc(O)cc2)C1=O (centres undefined) [OXYPHENBUTAZONE ANHYDROUS] | no drug-induced liver injury reported | drug-induced liver injury reported | no drug-induced liver injury reported | – | – | – |
| O=C1Nc2ccccc2C1(c1ccc(O)cc1)c1ccc(O)cc1 [OXYPHENISATINE] | drug-induced liver injury reported | no drug-induced liver injury reported | no drug-induced liver injury reported | – | – | – |
| O=c1[nH]c(=O)c2c[nH]nc2[nH]1 [OXYPURINOL] | no drug-induced liver injury reported | drug-induced liver injury reported | no drug-induced liver injury reported | – | – | – |
| CN(C)[C@@H]1C(O)=C(C(N)=O)C(=O)[C@@]2(O)C(O)=C3C(=O)c4c(O)cccc4[C@@](C)(O)[C@H]3[C@H](O)[C@@H]12 [OXYTETRACYCLINE] | no drug-induced liver injury reported | drug-induced liver injury reported | no drug-induced liver injury reported | – | – | – |
| O=C(O)/C=C/c1ccc(Cn2ccnc2)cc1 [OZAGREL] | no drug-induced liver injury reported | drug-induced liver injury reported | no drug-induced liver injury reported | – | – | – |
| CC(=O)O[C@H]1C(=O)[C@@]2(C)[C@H]([C@H](OC(=O)c3ccccc3)[C@]3(O)C[C@H](OC(=O)[C@H](O)[C@@H](NC(=O)c4ccccc4)c4ccccc4)C(C)=C1C3(C)C)[C@]1(OC(C)=O)CO[C@@H]1C[C@@H]2O [PACLITAXEL] | – | – | – | drug-induced liver injury reported | drug-induced liver injury reported | no drug-induced liver injury reported |
| COc1ccnc(C[S+]([O-])c2nc3ccc(OC(F)F)cc3[nH]2)c1OC (centres undefined) [PANTOPRAZOLE] | drug-induced liver injury reported | no drug-induced liver injury reported | no drug-induced liver injury reported | – | – | – |
| NC[C@@H]1O[C@H](O[C@H]2[C@@H](O)[C@H](O[C@@H]3[C@@H](O)[C@H](N)C[C@H](N)[C@H]3O[C@H]3O[C@H](CO)[C@@H](O)[C@H](O)[C@H]3N)O[C@@H]2CO)[C@H](N)[C@@H](O)[C@@H]1O [PAROMOMYCIN] | no drug-induced liver injury reported | drug-induced liver injury reported | no drug-induced liver injury reported | – | – | – |
| Fc1ccc([C@@H]2CCNC[C@H]2COc2ccc3c(c2)OCO3)cc1 [PAROXETINE] | drug-induced liver injury reported | no drug-induced liver injury reported | no drug-induced liver injury reported | – | – | – |
| NC1=NC(=O)C(c2ccccc2)O1 (centres undefined) [PEMOLINE] | drug-induced liver injury reported | no drug-induced liver injury reported | no drug-induced liver injury reported | – | – | – |
| Nc1nc2c(ncn2CCC(CO)CO)c(=O)[nH]1 [PENCICLOVIR] | drug-induced liver injury reported | no drug-induced liver injury reported | no drug-induced liver injury reported | – | – | – |
| CC(C)(S)[C@@H](N)C(=O)O [PENICILLAMINE] | drug-induced liver injury reported | drug-induced liver injury reported | drug-induced liver injury reported | – | – | – |
| CC1(C)S[C@@H]2[C@H](NC(=O)Cc3ccccc3)C(=O)N2[C@H]1C(=O)O [PENICILLIN G] | drug-induced liver injury reported | drug-induced liver injury reported | drug-induced liver injury reported | – | – | – |
| CSCC[C@H](NC(=O)[C@H](Cc1c[nH]c2ccccc12)NC(=O)CCNC(=O)OC(C)(C)C)C(=O)N[C@@H](CC(=O)O)C(=O)N[C@@H](Cc1ccccc1)C(N)=O [PENTAGASTRIN] | drug-induced liver injury reported | drug-induced liver injury reported | no drug-induced liver injury reported | – | – | – |
